In patent US20040038855A1 (priority 1999, published 2004):
Values belong to the molecule of their own block, whether it stands above or below them.

How the values were obtained:
[1] = molecular target: T1, human MCH1 receptor (Homo sapiens, UniProt Q99705); assay: Saturation and competition binding of [3H]Compound 10, membranes of Cos-7 cells transfected with MCH1; design: expressed in transfected cells; host or cells: COS-7
Description: Saturation equilibrium binding of [3H]Compound 10 to the human MCH1 receptor. Membrane preparations from Cos-7 cells transfected with MCH1 were incubated with varying concentrations of [3H]Compound 10 (SA: 56 Ci/mmol) at room temperature for 90 min, in a volume of 0.250 ml. The reaction was terminated by filtration in GF/C filters, and the radioactivity determined by scintillation counting. Non-specific binding was defined as the amount of radioactivity retained in the filter after incubating the reaction mixture in the presence of unlabeled Compound 10 ([…]).
Competition binding of [3H]Compound 10 to the human MCH1 receptor. […] The reaction was terminated by filtration in GF/C filters and the radioactivity bound to the membrane was determined by scintillation counting.
[3H]Compound 10 was tested for its ability to bind to membrane preparations of cells expressing the human MCH1 receptor.

[2] = molecular target: T2, MCH1 receptor binding sites in the rat CNS (Rattus norvegicus, UniProt P97639); assay: Receptor autoradiography with [3H]Compound 10 on rat brain and spinal cord sections; design: key to Density of MCH1 receptor binding sites: absent (−); weak (+); moderate (++); heavy (+++); intense (++++); details: for Density of MCH1 receptor binding sites: 0.1 nM [3H] Compound 10, 1 μM prazosin, 100 μM dopamine, rat CNS
T2 construct: from tissue; host or cells: coronal brain and spinal cord sections of male Sprague-Dawley rats
T2 sequence (P97639 whole entry): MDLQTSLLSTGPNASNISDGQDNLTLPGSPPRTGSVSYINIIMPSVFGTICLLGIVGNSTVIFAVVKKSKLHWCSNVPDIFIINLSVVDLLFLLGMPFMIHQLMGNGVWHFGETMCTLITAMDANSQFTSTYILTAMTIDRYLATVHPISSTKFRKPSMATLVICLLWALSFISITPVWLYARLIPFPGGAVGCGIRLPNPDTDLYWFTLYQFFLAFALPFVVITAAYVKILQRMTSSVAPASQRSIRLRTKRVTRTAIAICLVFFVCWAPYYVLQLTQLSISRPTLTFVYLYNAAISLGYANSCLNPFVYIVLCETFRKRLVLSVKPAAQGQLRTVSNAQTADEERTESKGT
Description: Male Sprague-Dawley rats (Charles Rivers, Rochester, N.Y.) were euthanized using CO2 and decapitated and their brains rapidly removed and frozen on crushed dry ice. Coronal sections were cut at 20 μm using a cryostat and thaw-mounted onto gelatin-coated slides then stored at −20° C. until use.
Dopamine, prazosin, and phenanthroline were obtained from Sigma (St. Louis, Mo.). Phenylmethylsulfonyl Fluoride (PMSF) was from Calbiochem (La Jolla, Calif.). See also Chemical Synthetic Methods described hereinafter.
Tissue sections were allowed to equilibrate to room temperature for one hour. Sections were incubated at 25° C. for 1.5 hours in 50 mM Tris-HCl buffer, pH 7.4, containing 10 mM MgCl2, 0.16 mM PMSF, 0.3 mM phenanthroline, 0.2% bovine serum albumin (Boehringer Mannheim, Indianapolis, Ind.), 100 μM dopamine, 1 μM prazosin, […] Following incubation the sections were washed twice for 5 minutes each in 4° C. 50 mM Tris-buffer, pH 7.4, then rapidly dipped in ice-cold distilled water to remove the salts. Tissues were dried under a stream of cold air and apposed together with ^3H-plastic standard scales, to Hyperfilm-^3H (Amersham, Piscataway, N.J.) for 6 weeks. Films were developed using a Kodak developer-D19 and Rapid fixer (Kodak, Rochester, N.Y.). […]

[3] = molecular target: T1, human MCH1 receptor; type: cell-based; design: expressed in transfected cells; host or cells: COS-7; details: agonist challenge
Description: Guidelines for cell preparation and assay of the second messenger inositol phosphate (IP) are described below for a typical protocol involving transiently transfected Cos-7 cells; For a 96 well microplate format assay, cells are plated at 70,000 cells per well and allowed to incubate for 24 hours after the transfection procedure. The cells are then labeled with 0.5 μCi [^3H]myo-inositol per micro-well over night at 37° C., 5% CO2. Immediately before the assay, the medium is removed and replaced with 90 μl PBS containing 10 mM LiCl. The plates are then incubated for 15 minutes at 37° C., […]. Following the incubation, the transfectants are challenged with agonist (10 μl/well; 10× concentration) for 30 minutes at 37° C., 5% CO2. The challenge is terminated and the cells lysed by the addition of 100 μl cold 5% v/v trichloroacetic acid (TCA), followed by an incubation at 4° C. for greater than 30 minutes. Total IPs are isolated from the lysate by ion exchange chromatography. Briefly, the lysed contents of the wells are transferred to a Multiscreen HV filter plate (Millipore) containing 100 μl Dowex AG1-X8 suspension (50% v/v, water:resin) (200-400 mesh, formate form). The filter plates are placed on a vacuum manifold to wash and elute the resin bed. Each well is first washed 2 times with 200 μl 5 mM myoinositol. Total [^3H]IPs are eluted with 75 μl of 1.2 M ammonium formate/0.1 M formic acid into Wallac 96-well plates. 200 μl of SuperMix scintillation cocktail is added to each well, mixed well, allowed to equilibrate and counted on a Micro Beta Trilux scintillation counter. (Note: The assay may be scaled to a 24 well format by simple adjustment of reagent volumes and employing individual chromatographic columns.)
The expression vector (pEXJ) containing the MCH1 cDNA was transfected by electroporation into Cos-7 cells in combination with an expression vector (pEXJ) containing the Gα16 subunit.

T1 sequence (Q99705 whole entry): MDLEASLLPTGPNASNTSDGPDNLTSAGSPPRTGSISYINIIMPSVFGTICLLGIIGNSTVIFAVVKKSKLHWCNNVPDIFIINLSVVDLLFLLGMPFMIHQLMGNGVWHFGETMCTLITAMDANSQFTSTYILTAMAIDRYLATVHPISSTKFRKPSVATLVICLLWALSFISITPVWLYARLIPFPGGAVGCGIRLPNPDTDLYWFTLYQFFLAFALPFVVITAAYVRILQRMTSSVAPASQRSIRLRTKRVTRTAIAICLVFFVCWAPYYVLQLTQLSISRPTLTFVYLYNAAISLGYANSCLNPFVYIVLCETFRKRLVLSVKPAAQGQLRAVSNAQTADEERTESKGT

Molecule: COCC1=C(C(=O)OC)[C@H](c2ccc(F)c(F)c2)N(C(=O)NCCCN2CCC(c3cccc(NC(C)=O)c3)CC2)C(=O)N1 [[3H]Compound 10, TRITIATED METHYL (4S)-3-{[(3-{4-[3-(ACETYLAMINO)PHENYL]-1-PIPERIDINYL}PROPYL)AMINO]CARBONYL}-4-(3,4-DIFLUOROPHENYL)-6-(METHOXYMETHYL)-2-OXO-1,2,3,4-TETRAHYDRO-5-PYRIMIDINECARBOXYLATE]
Kd ([1]; room temperature, 90 min, read-out: Kd (Scatchard analysis of saturation binding)): 0.18 nM

specific binding ([2]; 0.1 nM with 100 μM dopamine and 1 μM prazosin, nonspecific: 10 μM unlabeled Compound 10): approximately 95%
Density of MCH1 receptor binding sites ([2]; Amygdala: Anterior cortical n.): +
Density of MCH1 receptor binding sites ([2]; Amygdala: Basolateral amygdaloid n.): +
Density of MCH1 receptor binding sites ([2]; Amygdala: Bed n. Of the stria terminalis): ++
Density of MCH1 receptor binding sites ([2]; Amygdala: Central amygdaloid n.): +
Density of MCH1 receptor binding sites ([2]; Basal Ganglia: Accumbens n., core): +++
Density of MCH1 receptor binding sites ([2]; Basal Ganglia: Accumbens n., shell): ++++
Density of MCH1 receptor binding sites ([2]; Basal Ganglia: Caudate-putamen): +++
Density of MCH1 receptor binding sites ([2]; Basal Ganglia: Globus pallidus): −
Density of MCH1 receptor binding sites ([2]; Basal Ganglia: Medial septal n.): +
Density of MCH1 receptor binding sites ([2]; Basal Ganglia: Septohippocampal n.): +
Density of MCH1 receptor binding sites ([2]; Cerebellum): −
Density of MCH1 receptor binding sites ([2]; Diencephalon, Thalamus: Anterodorsal n.): +
Density of MCH1 receptor binding sites ([2]; Diencephalon, Thalamus: Centromedial n.): +
Density of MCH1 receptor binding sites ([2]; Diencephalon, Thalamus: Mediodorsal n.): −
Density of MCH1 receptor binding sites ([2]; Diencephalon, Thalamus: Paraventricular n.): +
Density of MCH1 receptor binding sites ([2]; Diencephalon, Thalamus: Reticular n.): +
Density of MCH1 receptor binding sites ([2]; Diencephalon: Hypothalamus): +
Density of MCH1 receptor binding sites ([2]; Hippocampal formation: CA1): ++
Density of MCH1 receptor binding sites ([2]; Hippocampal formation: CA2): ++
Density of MCH1 receptor binding sites ([2]; Hippocampal formation: CA3): ++
Density of MCH1 receptor binding sites ([2]; Hippocampal formation: Pre/parasubiculum): ++
Density of MCH1 receptor binding sites ([2]; Locus coeruleus (listed under Mesencephalon)): ++
Density of MCH1 receptor binding sites ([2]; Mesencephalon: Caudal linear raphe n.): +
Density of MCH1 receptor binding sites ([2]; Mesencephalon: Interpeduncular n.): ++
Density of MCH1 receptor binding sites ([2]; Mesencephalon: Periaqueductal gray): +
Density of MCH1 receptor binding sites ([2]; Mesencephalon: Pontine n.): +
Density of MCH1 receptor binding sites ([2]; Mesencephalon: Substantia nigra): +
Density of MCH1 receptor binding sites ([2]; Mesencephalon: Superior colliculus): ++
Density of MCH1 receptor binding sites ([2]; Olfactory System: Anterior olfactory n.): +
Density of MCH1 receptor binding sites ([2]; Olfactory System: Islands of Calleja, major): +++
Density of MCH1 receptor binding sites ([2]; Olfactory System: Olfactory tubercle): +++
Density of MCH1 receptor binding sites ([2]; Spinal cord: Dorsal horn): +
Density of MCH1 receptor binding sites ([2]; Spinal cord: Ventral horn): +
Density of MCH1 receptor binding sites ([2]; Telencephalon: Claustrum): ++
Density of MCH1 receptor binding sites ([2]; Telencephalon: Dorsal endopiriform n.): +
maximum number of binding sites (Bmax) [1]: 870 fmol/mg protein
Molecule: [3H]C1CN(CCCNC(=O)N2C(=O)NC(COC)=C(C(=O)OC)[C@@H]2c2ccc(F)c(F)c2)CCC1([3H])c1cccc(NC(C)=O)c1 (stereo partly drawn) [[3H]Compound 10, TRITIATED METHYL (4S)-3-{[(3-{4-[3-(ACETYLAMINO)PHENYL]-1-PIPERIDINYL}PROPYL)AMINO]CARBONYL}-4-(3,4-DIFLUOROPHENYL)-6-(METHOXYMETHYL)-2-OXO-1,2,3,4-TETRAHYDRO-5-PYRIMIDINECARBOXYLATE]

dose-responsiveness of inositol phosphate formation [3]: No dose-responsiveness
Molecule: O=C(CCCN1CCC(O)(c2ccc(Cl)cc2)CC1)c1ccc(F)cc1 [haloperidol]

Molecule: dynorphin A1-13: compound tested for its ability to activate MCH1 (YGGFLRRIRPKLK)
dose-responsiveness of inositol phosphate formation [3]: No dose-responsiveness
